Test results from PubChem BioAssay (NCI).
“And” between values parts separate entries of the source, which are not always exact repeats. Equal values may be shown once.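 Each compound was tested at five concentrations against cells in 96-well plates for 48 hours. GI50: concentration for 50% inhibition of growth. TGI: concentration producing complete growth inhibition.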

Assays:
Assay in all cases: NCI anticancer screen, dose series, 48 h
SK-MEL-28 melanoma = system: SK-MEL-28 melanoma
OVCAR-8 ovarian = system: OVCAR-8 ovarian
NCI-H23 lung = system: NCI-H23 lung
NCI-H460 lung = system: NCI-H460 lung
NCI-H226 lung = system: NCI-H226 lung
HCC-2998 colon = system: HCC-2998 colon
A549 NSCLC = system: A549 NSCLC
CAKI-1 renal = system: CAKI-1 renal
UACC-257 melanoma = system: UACC-257 melanoma
SR leukemia = system: SR leukemia

| Compound | GI50 (SK-MEL-28 melanoma) | TGI (SK-MEL-28 melanoma) | GI50 (OVCAR-8 ovarian) | GI50 (NCI-H23 lung) | GI50 (NCI-H460 lung) | GI50 (NCI-H226 lung) | TGI (NCI-H226 lung) | GI50 (HCC-2998 colon) | TGI (HCC-2998 colon) | TGI (OVCAR-8 ovarian) | TGI (NCI-H23 lung) | TGI (NCI-H460 lung) | GI50 (A549 NSCLC) | TGI (A549 NSCLC) | GI50 (CAKI-1 renal) | TGI (CAKI-1 renal) | GI50 (UACC-257 melanoma) | TGI (UACC-257 melanoma) | TGI (SR leukemia) |
| --- | --- | --- | --- | --- | --- | --- | --- | --- | --- | --- | --- | --- | --- | --- | --- | --- | --- | --- | --- |
| CCOCC(=O)N[C@H]1CCc2cc(OC(=O)COCC)c(OC)c(OC)c2-c2ccc(SC)c(=O)cc21 | > 100 µM | > 100 µM | 0.0365 µM | 0.0337 µM | 0.0395 µM | 0.0264 µM | 0.0917 µM and 0.0893 µM | 0.0211 µM | 0.0549 µM and 0.0866 µM | – | – | – | – | – | – | – | – | – | – |
| CO/N=C(\COc1ccc2c(c1)oc(=O)c1cc(OC)ccc12)c1ccc(F)cc1 | 87.3 µM | > 100 µM | 26.7 µM | 37.6 µM | 23.8 µM | 38.1 µM | > 100 µM | 23.6 µM | 72.7 µM | > 100 µM | > 100 µM | > 100 µM | 26.3 µM | 94.8 µM | 19.1 µM | 55 µM | 45.5 µM | > 100 µM | – |
| CCC[CH2][Sn]1([CH2]CCC)[O]C(=O)c2cccc(OC)c2[O]1 | 0.234 µM | 0.747 µM | 0.469 µM | 0.265 µM | 1.38 µM | 1.63 µM | 3.04 µM | 0.99 µM | 2.15 µM | 1.71 µM | 1.25 µM | 2.9 µM | 1.76 µM | 3.37 µM | 0.0732 µM | 0.775 µM | 0.199 µM | 0.537 µM | – |
| COC(=O)c1c(C)cc2c(c1O)C1(O)C(=O)c3cc4c(c(O)c3C(=O)C1(OC)C(O)C2)C(=O)C=C(NC1OC(C)C(OC)C(O)C1OC)C4=O (centres undefined) | – | – | – | – | – | – | 0.416 µM | – | 0.28 µM | 0.14 µM | 0.0368 µM | 0.435 µM | – | 1.03 µM | – | 0.806 µM | – | 0.0357 µM | – |
| O=C(Nc1ccc([N+](=O)[O-])cc1C(=O)O)c1ccc([N+](=O)[O-])cc1 | – | > 100 µM | – | – | – | – | 91.6 µM | – | > 100 µM | > 100 µM | – | > 100 µM | – | > 100 µM | – | – | – | > 100 µM | – |
| O=C1C2C(C(=O)N1c1ccccc1)C1(c3ccccc3)OC2(c2ccccc2)c2ccccc21 (centres undefined) | – | > 100 µM | – | – | – | – | – | – | > 100 µM | > 100 µM | > 100 µM | > 100 µM | – | > 100 µM | – | > 100 µM | – | > 100 µM | – |
| COc1cc2c3c(n(CCCNC(=O)OCC4c5ccccc5-c5ccccc54)c(=O)c2cc1OC)-c1cc2c(cc1C3=O)OCO2 | > 100 µM | > 100 µM | > 93.6 µM | > 64.1 µM | 2.57 µM | > 100 µM | > 100 µM | > 100 µM | > 100 µM | > 100 µM | > 100 µM | > 100 µM | > 100 µM | > 100 µM | 4.05 µM | > 100 µM | > 100 µM | > 100 µM | – |
| COc1ccc(/C(=N\O)c2cc(OC)c(OC)c(OC)c2)c(OC)c1N | – | – | 5.52 µM | 6.45 µM | 3.59 µM | 46.6 µM | > 100 µM | 3.29 µM | > 100 µM | > 100 µM | > 100 µM | > 100 µM | 6.26 µM | > 100 µM | 4.38 µM | > 100 µM | – | – | – |
| Cn1c(=O)c2[nH]c(C3CC(=O)CC(c4nc5c([nH]4)c(=O)n(C)c(=O)n5C)N3)nc2n(C)c1=O (centres undefined) | – | > 100 µM | – | – | – | – | > 100 µM | – | – | > 100 µM | > 100 µM | > 100 µM | – | > 100 µM | – | > 100 µM | – | > 100 µM | > 100 µM |
